The source of these data is patent US12570655B2, “Cysteine covalent modifiers of AKT1 and uses thereof” (Terremoto Biosciences, Inc., priority 2023, dated 2026).

Holding throughout (format): cell-based
Test [1] concerns the target T1, AKT1 E17K (Homo sapiens, UniProt P31749, E17K).
T1 construct: expressed in transfected cells; host or cells: HEK293
Put plainly: Live cell AKT1 E17K target engagement by NanoBRET competitive probe displacement. The note with it: HEK293 cells transfected with kinase-NanoLuciferase fusion, 2 h at 37° C. The method, boiled down:
(§1)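 Live-cell competitive tracer displacement in HEK293 expressing NanoLuciferase-tagged kinase. Compound and ATP-competitive tracer (~EC50) are co-incubated 2 h at 37 °C; BRET (E600/E460) gives IC50.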
(In general: In BRET a luciferase serves as donor, and the signal depends on an acceptor being close.)

Test [2] concerns the target T2, AKT2 (Homo sapiens, UniProt P31751).
T2 construct: expressed in transfected cells; host or cells: HEK293
Put plainly: Live cell AKT2 target engagement by NanoBRET competitive probe displacement. Particulars: HEK293 cells transfected with kinase-NanoLuciferase fusion, 2 h at 37° C. The method in brief:
as §1

Test [3] has as its target T3, AKT1 WT (Homo sapiens, UniProt P31749).
T3 construct: expressed in transfected cells; host or cells: HEK293
Put plainly: Live cell AKT1 WT target engagement by NanoBRET competitive probe displacement. The note with it: HEK293 cells transfected with kinase-NanoLuciferase fusion, 2 h at 37° C. The method in brief:
as §1

In test [4] the test system is LAPC4 prostate cancer cells. Put plainly: Antiproliferative effects in LAPC4 cells (CellTiter Glo). The note with it: LAPC4 cells (AKT1 E17K allele), read-out: LAPC4 proliferation IC50. The method, boiled down:
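Cells grown in IMDM supplemented with 12% FBS plus 1% P/S were treated for 72 h with DMSO-dissolved compounds. ATP-based luminescence was fitted to a log(inhibitor) versus response Hill model, giving IC50.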
(In general: In ATP-based viability assays light output follows the ATP content of the culture.)

SMILES strings stand for the structures. Read-outs that look alike come from different tables or passages of the source.

T2 sequence (P31751 whole entry): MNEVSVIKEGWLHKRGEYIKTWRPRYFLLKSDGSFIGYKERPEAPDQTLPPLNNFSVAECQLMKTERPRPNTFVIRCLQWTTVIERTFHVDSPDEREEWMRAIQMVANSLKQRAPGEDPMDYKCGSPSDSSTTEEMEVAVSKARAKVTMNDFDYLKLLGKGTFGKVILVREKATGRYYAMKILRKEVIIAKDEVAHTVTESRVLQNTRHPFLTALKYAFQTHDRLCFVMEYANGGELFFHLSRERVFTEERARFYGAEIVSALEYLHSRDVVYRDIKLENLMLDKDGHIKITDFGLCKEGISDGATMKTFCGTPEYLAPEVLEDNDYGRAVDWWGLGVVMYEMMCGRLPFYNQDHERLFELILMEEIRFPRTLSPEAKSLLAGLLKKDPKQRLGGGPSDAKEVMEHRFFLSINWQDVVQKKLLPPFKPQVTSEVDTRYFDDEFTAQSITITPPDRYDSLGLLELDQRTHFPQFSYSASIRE
T3 sequence (P31749 whole entry): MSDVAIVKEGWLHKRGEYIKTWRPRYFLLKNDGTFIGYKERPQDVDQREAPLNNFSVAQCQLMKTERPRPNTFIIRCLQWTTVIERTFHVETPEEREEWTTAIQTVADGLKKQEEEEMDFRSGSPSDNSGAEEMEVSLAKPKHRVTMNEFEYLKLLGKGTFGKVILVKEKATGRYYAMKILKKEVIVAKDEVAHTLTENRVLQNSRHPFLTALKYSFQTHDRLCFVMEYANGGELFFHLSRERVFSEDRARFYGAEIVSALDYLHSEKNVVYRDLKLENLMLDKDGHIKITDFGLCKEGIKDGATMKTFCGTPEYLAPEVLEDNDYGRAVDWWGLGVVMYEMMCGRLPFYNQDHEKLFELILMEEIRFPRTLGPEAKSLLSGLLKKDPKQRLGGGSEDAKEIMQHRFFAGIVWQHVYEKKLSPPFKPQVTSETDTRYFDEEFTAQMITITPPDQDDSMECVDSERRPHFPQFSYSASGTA
T1 sequence (P31749 whole entry E17K): as the sequence (P31749 whole entry) above, with E17K counted along it

As for `C=CC(=O)N1CCC(N[C@H]2CCc3cc(-n4c(-c5cccnc5N)nc5ccc(-n6cccn6)nc54)ccc32)C(OC)C1` (single isomer, unassigned) [Example 115, 1-((3*,4*)-4-(((S)-5-(2-(2-aminopyridin-3-yl)-5-(1H-pyrazol-1-yl)-3H-imidazo[4,5-b]pyridin-3-yl)-2,3-dihydro-1H-inden-1-yl)amino)-3-methoxypiperidin-1-yl)prop-2-en-1-one], the IC50 in test [1] was found to be 9.26 nM; in test [2], 40.4 nM; in test [3] it was 8.19 nM; in test [4] (72 h) it was 40.7 nM.

For the molecule `C=CC(=O)N1CCC(N[C@H]2CCc3cc(-n4c(-c5cccnc5N)nc5ccc(C6CC6)nc54)ccc32)C(F)C1` (single isomer, unassigned) [Example 176, 1-((3*,4*)-4-(((S)-5-(2-(2-aminopyridin-3-yl)-5-cyclopropyl-3H-imidazo[4,5-b]pyridin-3-yl)-2,3-dihydro-1H-inden-1-yl)amino)-3-fluoropiperidin-1-yl)prop-2-en-1-one], the IC50 amounted to 37.8 nM in test [1]; 484 nM in test [2]; 967 nM in test [3]; 433 nM in test [4] (Homo sapiens, LAPC4, 72 h).

`C=CC(=O)N1C[C@H]2COC[C@@H](C1)C2N[C@H]1CCc2cc(-n3c(-c4cccnc4N)nc4ccc(-n5cccn5)nc43)ccc21` (single isomer, unassigned) [Example 72, 1-((1R,5S,9*)-9-(((S)-5-(2-(2-aminopyridin-3-yl)-5-(1H-pyrazol-1-yl)-3H-imidazo[4,5-b]pyridin-3-yl)-2,3-dihydro-1H-inden-1-yl)amino)-3-oxa-7-azabicyclo[3.3.1]nonan-7-yl)prop-2-en-1-one]: the IC50 is 75.2 nM in test [1], 289 nM in test [2], 15.8 nM in test [3] and 493 nM in test [4] (72 h).

For the molecule `C=C(F)C(=O)N1CC2(CC(N[C@H]3CCc4cc(-n5c(-c6cccnc6N)nc6ccc(-n7cccn7)nc65)ccc43)C2)C1` [Example 83, (S)-1-(6-((5-(2-(2-aminopyridin-3-yl)-5-(1H-pyrazol-1-yl)-3H-imidazo[4,5-b]pyridin-3-yl)-2,3-dihydro-1H-inden-1-yl)amino)-2-azaspiro[3.3]heptan-2-yl)-2-fluoroprop-2-en-1-one], the IC50 in test [1] worked out at 192 nM; in test [2] it was 583 nM; in test [3], 56.2 nM; in test [4] (Homo sapiens, LAPC4, 72 h) it was 506 nM.

Take `C=CC(=O)N1CCC(N[C@@H]2c3ccc(-n4c(-c5cccnc5N)nc5ccc(-n6ccc(F)n6)nc54)cc3CC2F)C[C@@H]1C` (single isomer, unassigned) [Example 272, 1-((2S,4*)-4-(((1R,2*)-5-(2-(2-aminopyridin-3-yl)-5-(3-fluoro-1H-pyrazol-1-yl)-3H-imidazo[4,5-b]pyridin-3-yl)-2-fluoro-2,3-dihydro-1H-inden-1-yl)amino)-2-methylpiperidin-1-yl)prop-2-en-1-one]: the IC50 in test [1] is 23.6 nM; in test [2] it was 92.1 nM; in test [3], 1240 nM; in test [4] (72 h) it was 351 nM.

Consider `C=CC(=O)N1CCC(N[C@H]2CCc3cc(-n4c(-c5cccnc5N)nc5ccc(-n6cccn6)nc54)ccc32)C(C)(F)C1` (single isomer, unassigned) [Example 309, 1-((3*,4*)-4-(((S)-5-(2-(2-aminopyridin-3-yl)-5-(1H-pyrazol-1-yl)-3H-imidazo[4,5-b]pyridin-3-yl)-2,3-dihydro-1H-inden-1-yl)amino)-3-fluoro-3-methylpiperidin-1-yl)prop-2-en-1-one], for which the IC50 in test [1] worked out at 8.12 nM; in test [2], 22.4 nM; in test [3], 146 nM; in test [4] (72 h), 110 nM.

Turning to `C=CC(=O)Nc1ccc(F)cc1C(=O)N[C@H]1CCc2cc(-n3c(-c4cccnc4N)nc4ccc(-n5cccn5)nc43)ccc21` [Example 20, N-[(1S)-5-[2-(2-aminopyridin-3-yl)-5-(pyrazol-1-yl)imidazo[4,5-b]pyridin-3-yl]-2,3-dihydro-1H-inden-1-yl]-5-fluoro-2-(prop-2-enamido)benzamide], the IC50 in test [1] was determined as 9.64 nM; in test [2], 20.2 nM; in test [3] it was 7.5 nM; in test [4] (Homo sapiens, LAPC4, 72 h), 18.3 nM.

For the molecule `C#CC1CC(N[C@H]2CCc3cc(-n4c(-c5cccnc5N)nc5ccc(-n6cccn6)nc54)ccc32)CCN1C(=O)C=C` (single isomer, unassigned) [Example 114, 1-((2*,4*)-4-(((S)-5-(2-(2-aminopyridin-3-yl)-5-(1H-pyrazol-1-yl)-3H-imidazo[4,5-b]pyridin-3-yl)-2,3-dihydro-1H-inden-1-yl)amino)-2-ethynylpiperidin-1-yl)prop-2-en-1-one], the IC50 in test [1] turned out to be 8.34 nM; in test [2], 21.9 nM; in test [3], 8.56 nM; in test [4] (72 h) it was 12.5 nM.

Regarding `C=CC(=O)N1CCC(NC2CCc3cc(-n4c(-c5cccnc5N)nc5ccc(C6CC6(F)F)nc54)ccc32)CC1` (single isomer, unassigned) [Example 245, 1-(4-(((*)-5-(2-(2-aminopyridin-3-yl)-5-((*)-2,2-difluorocyclopropyl)-3H-imidazo[4,5-b]pyridin-3-yl)-2,3-dihydro-1H-inden-1-yl)amino)piperidin-1-yl)prop-2-en-1-one], the IC50 in test [1] was 37.6 nM; in test [2], 354 nM; in test [3] it was 715 nM; in test [4] (72 h), 526 nM.

As for `C=CC(=O)N1CCC(N[C@@H]2c3ccc(-n4c(-c5cccnc5N)nc5ccc(-n6ccc(F)n6)nc54)cc3CC2F)C[C@H]1C` (single isomer, unassigned) [Example 274, 1-((2R,4*)-4-(((1R,2*)-5-(2-(2-aminopyridin-3-yl)-5-(3-fluoro-1H-pyrazol-1-yl)-3H-imidazo[4,5-b]pyridin-3-yl)-2-fluoro-2,3-dihydro-1H-inden-1-yl)amino)-2-methylpiperidin-1-yl)prop-2-en-1-one], the IC50 in test [1] came to 18.8 nM; in test [2] it was 94.4 nM; in test [3], 696 nM; in test [4] (72 h), 323 nM.

For `C=CC(=O)N1CC2COCC(C1)C2N[C@H]1CCc2cc(-n3c(-c4cccnc4N)nc4ccc(-n5cccn5)nc43)ccc21` (mixture of isomers) [Example 64, 1-(9-(((S)-5-(2-(2-aminopyridin-3-yl)-5-(1H-pyrazol-1-yl)-3H-imidazo[4,5-b]pyridin-3-yl)-2,3-dihydro-1H-inden-1-yl)amino)-3-oxa-7-azabicyclo[3.3.1]nonan-7-yl)prop-2-en-1-one], the IC50 turned out to be 53.3 nM in test [1]; 158 nM in test [2]; 20 nM in test [3]; 145 nM in test [4] (Homo sapiens, LAPC4, 72 h).

Consider `C=CC(=O)N1CCC(N[C@H]2CCc3cc(-n4c(-c5cccnc5N)nc5ccc(-n6cccn6)nc54)ccc32)C(OC)C1` (single isomer, unassigned) [Example 117, 1-((3*,4*)-4-(((S)-5-(2-(2-aminopyridin-3-yl)-5-(1H-pyrazol-1-yl)-3H-imidazo[4,5-b]pyridin-3-yl)-2,3-dihydro-1H-inden-1-yl)amino)-3-methoxypiperidin-1-yl)prop-2-en-1-one], for which the IC50 in test [1] came out at 482 nM; in test [2], 780 nM; in test [3], 41.6 nM; in test [4] (72 h), 557 nM.
